Assay results reported in patent publication US10174011B2, “Heterocyclic compounds, process for preparation of the same and use thereof” (SHANGHAI INSTITUTE OF MATERIA MEDICA, CHINESE ACADEMY OF …, priority 2014, dated 2019).
Read-outs that look alike come from different tables or passages of the source.

How the values were obtained:
[1] = tested on: PCP-induced hyperactivity in mice; assay: In vivo efficacy test (PCP-induced high locomotor activity in mice); conditions: male ICR mice, oral administration 45 minutes before PCP 7 mg/kg i.p.; dose significantly reducing PCP-induced hyperactivity vs model group
Protocol: 5) In Vivo Efficacy Test (PCP-Induced High Locomotor Activity in Mice)
PCP solution was prepared in a suitable concentration for 7 mg/kg dosage with saline. […] Male ICR mice (18-22 g) were used as test animals. All the test mice were randomly divided into vehicle control group, model control group, positive control group, and treatment group(8 mice per group). Mice of each group were orally administered test compounds or vehicle. After 45 minutes PCP solution was administered (7 mg/kg) through intraperitoneal injection. The mice track after drug or saline administration was recorded and analyzed by the spontaneous, open-field video analysis system. […] The mice track was recorded and analyzed by the spontaneous, open-field video analysis system. The total distance in each group was calculate and expressed as mean+SD and statistical evaluation was performed by one way ANOVA.

[2] = biological target: human recombinant D2 receptor (Homo sapiens (Human), UniProt P14416); assay: D2 receptor antagonism activity test (inhibition of dopamine-induced decrease of cAMP production, LANCE cAMP 384 Kit); conditions: read-out: D2 receptor antagonism (IC50, mol/L), HEK293 cells expressing human recombinant D2 receptor, 0.1 nM-10000 nM
Chain of human recombinant D2 receptor (P14416 whole entry): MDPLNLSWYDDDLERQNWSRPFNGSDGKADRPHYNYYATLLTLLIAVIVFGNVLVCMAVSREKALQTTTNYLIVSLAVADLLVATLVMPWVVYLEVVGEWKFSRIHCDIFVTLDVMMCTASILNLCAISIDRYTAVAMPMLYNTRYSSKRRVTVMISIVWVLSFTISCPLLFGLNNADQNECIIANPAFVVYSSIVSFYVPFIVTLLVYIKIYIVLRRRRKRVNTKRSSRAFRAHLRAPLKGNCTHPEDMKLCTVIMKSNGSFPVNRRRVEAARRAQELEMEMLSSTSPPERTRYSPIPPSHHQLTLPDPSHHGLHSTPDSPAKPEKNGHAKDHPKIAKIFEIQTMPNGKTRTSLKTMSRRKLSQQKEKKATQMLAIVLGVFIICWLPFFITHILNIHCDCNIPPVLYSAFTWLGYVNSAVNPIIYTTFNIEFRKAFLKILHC

[3] = biological target: human recombinant 5-HT2A receptor (Homo sapiens (Human), UniProt P28223); assay: 5-HT2A receptor antagonism activity test (FLIPR Calcium 5 Assay Kit); conditions: read-out: 5-HT2A receptor antagonism (IC50, mol/L)
Chain of human recombinant 5-HT2A receptor (P28223 whole entry): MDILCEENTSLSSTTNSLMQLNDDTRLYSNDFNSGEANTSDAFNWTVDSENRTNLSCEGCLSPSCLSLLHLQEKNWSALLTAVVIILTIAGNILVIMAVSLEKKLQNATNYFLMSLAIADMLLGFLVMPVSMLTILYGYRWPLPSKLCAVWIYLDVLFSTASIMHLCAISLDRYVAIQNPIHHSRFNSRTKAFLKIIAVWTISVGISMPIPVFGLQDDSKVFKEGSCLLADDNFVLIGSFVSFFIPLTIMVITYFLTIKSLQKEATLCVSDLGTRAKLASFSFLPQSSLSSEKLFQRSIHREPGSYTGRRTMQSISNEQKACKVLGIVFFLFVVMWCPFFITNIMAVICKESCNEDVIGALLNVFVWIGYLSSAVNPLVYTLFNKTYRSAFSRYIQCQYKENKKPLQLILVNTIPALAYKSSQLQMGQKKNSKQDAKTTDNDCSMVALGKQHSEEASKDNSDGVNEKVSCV

[4] = biological target: human recombinant 5-HT1A receptor (Homo sapiens (Human), UniProt P08908); assay: 5-HT1A receptor agonism activity test (inhibition of cAMP production, LANCE cAMP 384 Kit); type: cell-based; conditions: HEK293 cells expressing human recombinant 5-HT1A receptor; test concentration 0.1 nM-10000 nM; read-out: 5-HT1A receptor agonism (EC50, mol/L)
Chain of human recombinant 5-HT1A receptor (P08908 whole entry): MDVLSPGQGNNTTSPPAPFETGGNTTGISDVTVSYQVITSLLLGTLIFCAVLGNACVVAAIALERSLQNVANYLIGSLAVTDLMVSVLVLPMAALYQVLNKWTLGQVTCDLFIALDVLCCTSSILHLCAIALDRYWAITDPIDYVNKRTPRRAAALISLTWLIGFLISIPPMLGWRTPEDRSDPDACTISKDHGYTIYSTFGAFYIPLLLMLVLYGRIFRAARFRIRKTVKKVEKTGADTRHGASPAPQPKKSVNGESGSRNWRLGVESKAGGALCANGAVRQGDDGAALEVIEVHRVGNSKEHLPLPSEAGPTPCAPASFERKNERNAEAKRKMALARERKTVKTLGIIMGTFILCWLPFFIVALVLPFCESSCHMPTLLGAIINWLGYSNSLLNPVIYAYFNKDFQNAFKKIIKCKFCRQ
Source text: Pharmacological Test 1) 5-HT1A Receptor Agonism Activity Test

[5] = CHO-K1 cells expressing human recombinant 5-HT2A receptor, α-methyl-5-hydroxytryptamine 300 nM, 0.1 nM-10000 nM

Compound	Effective dose [1] [mg/kg]	IC50 [2] [nM]	IC50 [3] [nM]	EC50 [4] [nM]	IC50 [3, 5] [nM]
O=C1Cc2cc(CCN3CCN(c4cccc5sccc45)CC3)ccc2N1 [Compound of example 8, 5-(2-(4-(benzo[b]thiophen-4-yl)piperazin-1-yl)ethyl)indolin-2-one]	0.1 to 0.3	–	–	–	–
Cl.O=C1Cc2cc(CCN3CCN(c4cccc5sccc45)CC3)c(Cl)cc2N1 [Compound of example 15, 5-(2-(4-(benzo[b]thiophen-4-yl)piperazin-1-yl)ethyl)-6-chloroindolin-2-one hydrochloride]	0.1 to 1	–	–	–	–
O=c1[nH]c2ccc(CCN3CCN(c4cccc5sccc45)CC3)cc2[nH]1 [Compound of example 27, 5-(2-(4-(benzo[b]thiophen-4-yl)piperazin-1-yl)ethyl)-1H-benzo[d]imidazol-2(3H)-one]	0.3	–	–	–	–
Cl.O=c1[nH]c2ccc(CCN3CCN(c4cccc5sccc45)CC3)cc2s1 [Compound of example 29, 6-(2-(4-(benzo[b]thiophen-4-yl)piperazin-1-yl)ethyl)benzo[d]thiazol-2(3H)-one hydrochloride]	0.3	–	–	–	–
Cl.O=C1COc2ccc(CCN3CCN(c4cccc5sccc45)CC3)cc2N1 [Compound of example 30, 6-(2-(4-(benzo[b]thiophen-4-yl)piperazin-1-yl)ethyl)-2H-benzo[b][1,4]oxazin-3(4H)-one hydrochloride]	0.3	34.2	42.1	–	–
c1ccc2c(CCN3CCN(c4cccc5sccc45)CC3)c[nH]c2c1 [Compound of example 46, 3-(2-(4-(benzo[b]thiophen-4-yl)piperazin-1-yl)ethyl)-1H-indole]	1	–	–	–	–
Cl.O=C1CCc2cc(CCN3CCN(c4cccc5sccc45)CC3)ccc2N1 [Compound of example 47, 6-(2-(4-(benzo[b]thiophen-4-yl)piperazin-1-yl)ethyl)-3,4-dihydroquinolin-2(1H)-one hydrochloride]	0.3	–	–	–	–
Cl.O=C1CCCc2cc(CCN3CCN(c4cccc5sccc45)CC3)ccc2N1 [Compound of example 49, 7-(2-(4-(benzo[b]thiophen-4-yl)piperazin-1-yl)ethyl)-4,5-dihydro-1H-benzo[b]azepin-2(3H)-one hydrochloride]	1	–	–	–	–
CN1Cc2cc(CCN3CCN(c4cccc5sccc45)CC3)ccc2NC1=O [Compound of example 51, 6-(2-(4-(benzo[b]thiophen-4-yl)piperazin-1-yl)ethyl)-3-methyl-3,4-dihydroquinazolin-2(1H)-one]	1	–	–	–	–
Cl.O=c1ccc2ccc(CCN3CCN(c4cccc5sc(F)cc45)CC3)cc2[nH]1 [Compound of example 57, 7-(2-(4-(2-fluorobenzo[b]thiophen-4-yl)piperazin-1-yl)ethyl)quinolin-2(1H)-one hydrochloride]	1	8.4	–	–	–
c1cc(N2CCN(CCc3ccc4ncsc4c3)CC2)c2ccsc2c1 [Compound of example 59, 6-(2-(4-(benzo[b]thiophen-4-yl)piperazin-1-yl)ethyl)benzo[d]thiazole]	0.3	–	–	–	–
O=c1[nH]c2ccc(CCN3CCN(c4cccc5sccc45)CC3)cc2o1 [Compound of example 68, 6-(2-(4-(benzo[b]thiophen-4-yl)piperazin-1-yl)ethyl)benzo[d]oxazol-2(3H)-one]	0.3	–	4.82	–	–
O=c1ccc2ccc(CCCCCN3CCN(c4cc(F)cc5sccc45)CC3)cc2[nH]1 [Compound of example 71, 7-(5-(4-(6-fluorobenzo[b]thiophen-4-yl)piperazin-1-yl)pentyl)quinolin-2(1H)-one]	3	–	–	–	–
Cl.Cn1c(=O)n(C)c2cc(CCN3CCN(c4cccc5sccc45)CC3)ccc21 [Compound of example 87, 5-(2-(4-(benzo[b]thiophen-4-yl)piperazin-1-yl)ethyl)-1,3-dimethyl-1H-benzo[d]imidazol-2(3H)-one hydrochloride]	1	–	–	4.5	88
O=C1Cc2cc(CCN3CCN(c4cccc5sc(F)cc45)CC3)c(Cl)cc2N1 [Compound of example 113, 6-chloro-5-(2-(4-(2-fluorobenzo[b]thiophen-4-yl)piperazin-1-yl)ethyl)indolin-2-one]	–	61	–	9.09	716
CN1C(=O)COc2ccc(CCN3CCN(c4cccc5sccc45)CC3)cc21 [Compound of example 114, 6-(2-(4-(benzo[b]thiophen-4-yl)piperazin-1-yl)ethyl)-4-methyl-2H-benzo[b][1,4]oxazin-3(4H)-one]	–	26.9	–	8.08	461
CN1C(=O)CCc2ccc(CCN3CCN(c4cccc5sccc45)CC3)cc21 [Compound of example 115, 7-(2-(4-(benzo[b]thiophen-4-yl)piperazin-1-yl)ethyl)-1-methyl-3,4-dihydroquinolin-2(1H)-one]	–	29.3	53.7	8.52	–
CC(=O)Nc1nc2cc(CCN3CCN(c4cccc5sccc45)CC3)ccc2s1 [Compound of example 118, N-(5-(2-(4-(benzo[b]thiophen-4-yl)piperazin-1-yl)ethyl)benzo[d]thiazol-2-yl)acetamide]	–	119	–	0.602	75
CC(=O)Nc1nc2cccc(CCN3CCN(c4cccc5sccc45)CC3)c2s1 [Compound of example 119, N-(7-(2-(4-(benzo[b]thiophen-4-yl)piperazin-1-yl)ethyl)benzo[d]thiazol-2-yl)acetamide]	–	4.69	–	0.787	34.3
CC(=O)Nc1nc2c(CCN3CCN(c4cccc5sccc45)CC3)cccc2s1 [Compound of example 121, N-(4-(2-(4-(benzo[b]thiophen-4-yl)piperazin-1-yl)ethyl)benzo[d]thiazol-2-yl)acetamide]	–	216	–	32	41
CC(=O)N1CC(CCN2CCN(c3cccc4sccc34)CC2)c2ccccc21.Cl (stereo not drawn) [Compound of example 124, 1-(3-(2-(4-(benzo[b]thiophen-4-yl)piperazin-1-yl)ethyl)indolin-1-yl)ethanone hydrochloride]	3	–	–	–	–
Cl.S=C1CCc2ccc(CCN3CCN(c4cccc5sccc45)CC3)cc2N1 [Compound of example 133, 7-(2-(4-(benzo[b]thiophen-4-yl)piperazin-1-yl)ethyl)-3,4-dihydroquinoline-2(1H)-thione hydrochloride]	1	10.9	–	–	–
O=C1N[C@@H]2[C@@H](CS[C@@H]2CCCCCN2CCN(c3cccc4sccc34)CC2)N1 [Compound of example 134, (3aR,4R,6aS)-4-(5-(4-(benzo[b]thiophen-4-yl)piperazin-1-yl)pentyl)tetrahydro-1H-thieno[3,4-d]imidazol-2(3H)-one]	–	37.9	–	0.75	16.7
O=C1COc2c(F)cc(CCN3CCN(c4cccc5sccc45)CC3)cc2N1 [Compound of example 139, 6-(2-(4-(benzo[b]thiophen-4-yl)piperazin-1-yl)ethyl)-8-fluoro-2H-benzo[b][1,4]oxazin-3(4H)-one]	–	79.6	–	0.766	104
COC(CN1CCN(c2cccc3sccc23)CC1)c1cccc2c1OCC(=O)N2 (stereo not drawn) [Compound of example 144, 8-(2-(4-(benzo[b]thiophen-4-yl)piperazin-1-yl)-1-methoxyethyl)-2H-benzo[b][1,4]oxazin-3(4H)-one]	–	65.8	17	8.93	–
O=C1Cc2cc(C(O)CN3CCN(c4cccc5sccc45)CC3)ccc2N1 (stereo not drawn) [Compound of example 145, 5-(2-(4-(benzo[b]thiophen-4-yl)piperazin-1-yl)-1-hydroxyethyl)indolin-2-one]	–	192	–	6.3	14.7
O=C1CCc2ccc(C(O)CCCCN3CCN(c4cccc5sccc45)CC3)cc2N1 (stereo not drawn) [Compound of example 150, 7-(5-(4-(benzo[b]thiophen-4-yl)piperazin-1-yl)-1-hydroxypentyl)-3,4-dihydroquinolin-2(1H)-one]	–	4.54	–	15.7	108
CC(=O)Nc1nc2ccc(CCN3CCN(c4cccc5sccc45)CC3)cc2s1 [Compound of example 153, N-(6-(2-(4-(benzo[b]thiophen-4-yl)piperazin-1-yl)ethyl)benzo[d]thiazol-2-yl)acetamide]	–	3.8	–	2.35	18.9
O=C1CCc2ccc(OCCCCN3CCN(c4cccc(Cl)c4Cl)CC3)cc2N1 [aripiprazole, reference compound]	3	–	–	–	–
